Reference: patent US4900729A, “Thieno-1,4-diazepines” (Boehringer Ingelheim KG, priority 1986, dated 1990)
Like-named read-outs stand apart in the source and are kept apart here.

Experiments:
[1] = test system: human thrombocytes (PAF-induced aggregation); experiment: inhibition of PAF-induced aggregation of human thrombocytes in vitro; type: cell-based
Procedure: The PAF-antagonistic activity of some compounds of formula I was investigated by means of the inhibition of blood platelet aggregation in vitro and the antagonising of the PAF-induced bronchoconstriction in anaesthetised guinea pigs, the lowering of blood pressure in anaesthetised rats and skin wheals in rats. Moreover, these compounds were tested for any possible side effects on the central nervous system.
1. In vitro tests: inhibition of blood platelet aggregation
In order to determine the PAF-antagonistic activity of substances, the PAF-induced aggregation of human thrombocytes in vitro was used. In order to obtain thrombocyte-rich plasma (TRP) blood was taken from an unconstricted vein using a plastic syringe containing 3.8% of sodium citrate solution. The ratio of sodium citrate solution to blood was 1:9. After careful mixing, the citrated blood was centrifuged for 20 minutes at 150×g (1200 rpm). The thrombocyte aggregation was measured using the method developed by Born and Cross (G. V. R. Born and M. J. Cross, J. Physiol. 168, 178 (1963)), in which PAF is added to the TRP with constant stirring in order to initiate aggregation.
The test substance is added 2 to 3 minutes before aggregation is induced, in a volume of 10 μl. The solvent used is either distilled water, ethanol and/or dimethylsulphoxide. The controls were given corresponding volumes of this solvent. After the initial absorption had been recorded (2 to 3 minutes) aggregation was induced with PAF (5×10^-8 M).
The maximum of the first aggregation wave is used to assess the effects of the substance. The PAF-induced maximum absorption rate (=maximum aggregation×100%) is simultaneously tested in a parallel mixture (=control mixture in one of the channels of the 2-channel aggregometer) with each test batch (second channel) and is used as the 100% value.
The level of aggregation achieved under the effect of the […] is given […].
Each test substance is tested at concentrations of from 10^-3 to 10^-8 M with a random sampling range of n=4 in order to investigate an inhibiting effect on the PAF-induced thrombocyte aggregation. A concentration-activity curve is then plotted using 3 concentrations and the IC50 is determined (concentration for a 50% inhibition of aggregation). The IC values of compounds of general formula I are generally around levels of less than 9 μM.

[2] = commercially available tranquillisers or hypnotics; cited from earlier work
[3] = Platelet, Table A, PAF 5×10^-8 M, human thrombocyte-rich plasma, read-out: IC50 (inhibition of blood platelets)

| SMILES | IC50 [1, 3] | other results |
| --- | --- | --- |
| Cc1nnc2n1-c1sc(CCCCCCC=O)cc1C(c1ccccc1Cl)=NC2 [Example 12, 2-(6-Formylhexyl)-4-(2-chlorophenyl)-9-methyl-6H-thieno[3,2-f][1,2,4]triazolo[4,3-a][1,4]diazepine] | 0.3 µM | – |
| Cc1nnc2n1-c1sc(CCCN3CCOCC3)cc1C(c1ccccc1Cl)=NC2 [Example 11, 2-(3-(N-Morpholinyl)propyl)-4-(2-chlorophenyl)-9-methyl-6H-thieno[3,2-f][1,2,4]triazolo[4,3-a][1.4]-diazepine] | < 0.2 µM | – |
| Cc1nnc2n1-c1sc(CCS(=O)(=O)N3CCOCC3)cc1C(c1ccccc1Cl)=NC2 [Example 20] | 0.3 µM | – |
| CC(=O)NCCCCCCCc1cc2c(s1)-n1c(C)nnc1CN=C2c1ccccc1Cl [Example 10, 2-(7-Acetylaminoheptyl)-4-(2-chlorophenyl)-9-methyl-6H-thieno[3,2-f][1,2,4]triazolo[4,3-a][1,4]diazepine] | 1.7 µM | – |
| CC(=O)OCCCCCCCc1cc2c(s1)-n1c(C)cnc1CN=C2c1ccccc1Cl [Example 58] | < 0.2 µM | – |
| Cc1nnc2n1-c1sc(CCCN3CCOCC3)cc1C(c1ccccc1)=NC2 [Example 54] | 1.1 µM | – |
| Cc1nnc2n1-c1sc(CCCn3cncn3)cc1C(c1ccccc1Cl)=NC2 [Example 64] | < 0.2 µM | – |
| Cc1nnc2n1-c1sc(CCCNCCN3CCOCC3)cc1C(c1ccccc1Cl)=NC2 [Example 75] | 1.9 µM | – |
| Cc1nnc2n1-c1sc(CCCO)cc1C(c1ccccc1Cl)NC2 (stereo not shown) [Example 98] | 2.3 µM | – |
| Cc1nnc2n1-c1ccc(Cl)cc1C(c1ccccc1)=NC2 [Alprazolam, alprazolam, reference compound] | – | IC50 ([1]; PAF-induced aggregation, read-out: IC50 (concentration for a 50% inhibition of aggregation)): 14 µM; IC50 ([1]; Table A, PAF 5×10^-8 M, human thrombocyte-rich plasma, read-out: IC50 (inhibition of blood platelets)): 14 µM |
| Cc1nnc2n1-c1sc(CCCN3CCCCC3)cc1C(c1ccccc1Cl)=NC2 [Example 45] | 0.3 µM | – |
| CC(=O)OCCCCCCCc1cc2c(s1)-n1c(C)nnc1CN=C2c1ccccc1Cl [Example 4, 7-[4-(2-Chlorophenyl)-9-methyl-6H-thieno[3,2-f][1,2,4]triazolo[4,3-a][1,4]diazepin-2-yl]heptyl acetate] | < 0.2 µM | – |
| Cc1nnc2n1-c1ccc(Cl)cc1C(c1ccccc1Cl)=NC2 [Triazolam, triazolam, reference compound] | 9 µM | sedative effect of known benzodiazepines [2]: marked sedative effect; IC50 ([1]; Homo sapiens, PAF-induced aggregation, read-out: IC50 (concentration for a 50% inhibition of aggregation)): 9 µM |
| CC(=O)OCCCc1cc2c(s1)-n1cnnc1CN=C2c1ccccc1Cl [Example 50] | 0.6 µM | – |
| Cc1nnc2n1-c1sc(CCCCCCCN3C(=O)c4ccccc4C3=O)cc1C(c1ccccc1Cl)=NC2 [Example 8, 2-(7-N-Phthalimidoheptyl)-4-(2-chlorophenyl)-9-methyl-6H-thieno[3,2-f][1,2,4]triazolo[4,3-a][1,4]-diazepine] | < 0.3 µM | – |
| CCN(CC)CCCc1cc2c(s1)-n1c(C)nnc1CN=C2c1ccccc1Cl [Example 71] | 0.9 µM | – |
| Cc1nnc2n1-c1sc(CCCCCCCN)cc1C(c1ccccc1Cl)=NC2 [Example 9, 2-(7-Amino-heptyl)-4-(2-chlorophenyl)-9-methyl-6H-thieno[3,2-f][1,2,4]triazolo[4,3-a][1,4]diazepine] | 0.2 µM | – |
| Cc1nnc2n1-c1sc(CCCN3CCOCC3)cc1C(c1ccccc1Cl)NC2 (stereo not shown) [Example 14l, 2-[3-(N-Morpholinyl)-n-propyl]-4-(2-chlorophenyl)-9-methyl-4,5-dihydro-6H-thieno[3,2-f][1,2,4]triazolo-[4,3-a][1,4]diazepine] | 0.6 µM | – |
| Cc1nnc2n1-c1sc(CC(C)C(=O)N3CCOCC3)cc1C(c1ccccc1Cl)=NC2 (stereo not shown) [Example 14i, 2-[2-(Morpholin-4-yl-carbonyl)-n-propyl]-4-(2-chlorophenyl)-9-methyl-6H-thieno[3,2-f][1,2,4]triazolo[4,3-a][1,4]diazepine] | 0.4 µM | – |
| Cc1nnc2n1-c1sc(CCCCCCCOC(=O)C(C)(C)C)cc1C(c1ccccc1Cl)=NC2 [Example 27] | 0.2 µM | – |
| Cc1nnc2n1-c1sc(CCCCCCCNCCN(C)C)cc1C(c1ccccc1Cl)=NC2 [Example 60] | 0.9 µM | – |
| CC(=O)OCCCc1cc2c(s1)-n1c(C)cnc1CN=C2c1ccccc1Cl [Example 56] | 0.3 µM | – |
| Cc1nnc2n1-c1sc(CCS(=O)(=O)N3CCN(C)CC3)cc1C(c1ccccc1Cl)=NC2 [Example 1, 2-[4-(2-Chlorophenyl)-9-methyl-6H-thieno[3,2-f][1,2,4]triazolo[4,3-a][1,4]diazepin-2-yl]-ethane-1-sulphonic acid-N'-methylpiperazide] | 0.3 µM | – |
| Cc1nnc2n1-c1sc(CCCCCCCOS(C)(=O)=O)cc1C(c1ccccc1Cl)=NC2 [Example 23] | 0.9 µM | – |
| CC(=O)OCCCc1cc2c(s1)-n1c(C)nnc1CN=C2c1ccccc1Cl [Example 2, 3-[4-(2-Chlorophenyl)-9-methyl-6H-thieno[3,2-f][1,2,4]triazolo[4,3-a][1,4]diazepin-2-yl]propyl acetate] | < 0.2 µM | – |
| Cc1nnc2n1-c1sc(CCCOC(=O)C(C)(C)C)cc1C(c1ccccc1Cl)=NC2 [Example 25] | 0.9 µM | – |
| Cc1nnc2n1-c1sc(CCCCCCCN3CCN(C)CC3)cc1C(c1ccccc1Cl)=NC2 [Example 49] | 1 µM | – |
| CC(=O)OCCCc1cc2c(s1)-n1c(Br)nnc1CN=C2c1ccccc1Cl [Example 13, 2-(3-Acetoxypropyl)-4-(2-chlorophenyl)-9-bromo-6H-thieno[3,2-f][1,2,4]triazolo[4,3-a][1,4]diazepine] | 0.3 µM | – |
